The record followed here is PMC5536041, “Inhibitory Effects of Trapping Agents of Sulfur Drug Reactive Intermediates against Major Human Cytochrome P450 Isoforms” (International Journal of Molecular Sciences, 2017).

Read-outs that look alike come from different tables or passages of the source. A value given as a limit tells only on which side of the number the result lay.

For series [1], the system named is major human CYP isoforms (CYP1A2, 2C9, 2C19, 2D6 and 3A). Briefly: CYP inhibition in human liver microsomes, summary over the isoform panel. The following applies: HLM + NADPH. (Microsomes from liver hold many membrane-bound enzymes, among them those of drug oxidation.)
For series [2], the target named is T1, CYP3A (Homo sapiens, UniProt P08684). The following applies: microsomes.
For series [3], the target named is T1, CYP3A. The following applies: microsomes. This is another data set of the same source.
For series [4], the target named is T2, CYP2D6 (Homo sapiens, UniProt P10635). The following applies: microsomes.
The target in series [5] is T3, CYP2C9 (Homo sapiens, UniProt P11712). Particulars: microsomes.
Series [6] deals with T4, CYP2C19 (Homo sapiens, UniProt P33261). Particulars: microsomes.
The subject of series [7] is major human CYP isoforms (CYP1A2, 2C9, 2C19, 2D6 and 3A).
Series [8] concerns the target T5, CYP1A2 (Homo sapiens, UniProt P05177).
T5 sequence (P05177 1-516): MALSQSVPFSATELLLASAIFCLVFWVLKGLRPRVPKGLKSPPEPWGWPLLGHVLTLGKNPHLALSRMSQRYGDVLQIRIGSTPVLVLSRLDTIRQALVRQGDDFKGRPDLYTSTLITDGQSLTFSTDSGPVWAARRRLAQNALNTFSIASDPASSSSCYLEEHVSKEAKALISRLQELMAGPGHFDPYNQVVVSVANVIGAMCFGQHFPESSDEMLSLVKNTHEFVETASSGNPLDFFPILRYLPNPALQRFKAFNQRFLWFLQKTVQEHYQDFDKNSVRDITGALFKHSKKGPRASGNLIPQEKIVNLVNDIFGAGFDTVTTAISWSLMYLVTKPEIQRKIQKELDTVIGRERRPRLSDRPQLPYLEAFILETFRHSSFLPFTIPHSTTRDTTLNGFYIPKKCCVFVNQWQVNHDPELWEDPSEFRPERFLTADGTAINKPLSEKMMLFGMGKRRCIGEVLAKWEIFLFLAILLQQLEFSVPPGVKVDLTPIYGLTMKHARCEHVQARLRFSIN
Particulars: microsomes.

In series [9] the target is T4, CYP2C19. Briefly: CYP inhibition in human liver microsomes, CYP2C19 ((S)-mephenytoin probe). Particulars: for Activation of CYP2C19 observed at concentrations up to: HLM + NADPH, (S)-mephenytoin probe.
Series [10] addresses T5, CYP1A2. Kind of series: CYP inhibition in human liver microsomes, CYP1A2 (tacrine probe).
The target of series [11] is T2, CYP2D6. Briefly: CYP inhibition in human liver microsomes, CYP2D6 (dextromethorphan probe).
The target in series [12] is T3, CYP2C9. Briefly: CYP inhibition in human liver microsomes, CYP2C9 ((S)-warfarin probe). Particulars: for Activation of CYP2C9 observed at concentrations up to: HLM + NADPH, (S)-warfarin probe.
The subject of series [13] is major human CYP isoforms (CYP1A2, 2C9, 2C19, 2D6 and 3A). Briefly: in vitro. The following applies: microsomes.
Series [14] deals with T1, CYP3A. Kind of series: in vitro. Particulars: microsomes.
For series [15], the target named is T1, CYP3A. Briefly: in vitro. Particulars: microsomes. This is another data set of the same source.
In series [16] the target is T5, CYP1A2. Kind of series: in vitro. Particulars: microsomes.
Series [17] deals with ticlopidine metabolism in human liver microsomes (TSOD and TSO-NEM formation). Briefly: Trapping of reactive metabolites of ticlopidine with NEM in human liver microsomes. The class given is in vitro ADME. Particulars: ticlopidine 1 μM. Here is the method: Ticlopidine (1 μM) was incubated at 37 °C for 15 min in the presence or absence of various concentrations of NEM with HLM (0.5 mg/mL), NADPH (1 mM) and KPi (0.1 M), in a final incubation volume of 100 µL. Assay conditions were optimized with regard to protein concentration and incubation time, based on linear formation of TSOD. The incubations were performed over a concentration range of NEM (0.0007–40 mM) including a vehicle control, for a total of twelve incubations. A 50 µL sample was withdrawn at 15 min and the reactions were quenched in 100 µL of 0.1% formic acid in ACN containing an IS. Samples were centrifuged at 2000× g for 10 min and supernatants (75 µL) were removed and diluted with 0.1% formic acid in water (150 µL). The prepared samples were analyzed by LC-MS/MS for ticlopidine, N-ethylmaleimide-trapped S-oxide (TSO-NEM) and ticlopidine S-oxide dimer (TSOD). Peak areas were normalized to an IS, and the percentage of metabolite formed at the end of the incubation was calculated and compared to the incubation containing the highest peak area to IS ratio of metabolite (set at 100%).
The prepared samples were analyzed by LC-MS/MS using a Cohesive LX-2 Transcend Multiplexing system with Agilent 1100 series high pressure liquid chromatography (HPLC) pumps from Agilent Technologies (Santa Clara, CA, USA) and an HTS PAL autosampler from CTC Analytics (Carrboro, NC, USA) connected to a Sciex API5500-QTrap mass spectrometer with a Turbo V™ ion source (Foster City, CA, USA). A Phenomenex Kinetex Phenyl-Hexyl HPLC column (30 × 2.1 mm, 2.6 µ) was used with 0.1% formic acid in water (mobile phase A) or 0.1% formic acid in ACN (mobile phase B) flowing at 0.55 mL/min in the following gradient: mobile phase B was held at 1% for 0.4 min, increased to 5% over 0.2 min, to 55% over 6.7 min and to 95% over 0.5 min, where it was held for 0.75 min prior to re-equilibration at 1%. LC-MS/MS multiple reaction (MRM) transitions for the CYP inhibition assay were reported previously. […]

T3 sequence (P11712 whole entry): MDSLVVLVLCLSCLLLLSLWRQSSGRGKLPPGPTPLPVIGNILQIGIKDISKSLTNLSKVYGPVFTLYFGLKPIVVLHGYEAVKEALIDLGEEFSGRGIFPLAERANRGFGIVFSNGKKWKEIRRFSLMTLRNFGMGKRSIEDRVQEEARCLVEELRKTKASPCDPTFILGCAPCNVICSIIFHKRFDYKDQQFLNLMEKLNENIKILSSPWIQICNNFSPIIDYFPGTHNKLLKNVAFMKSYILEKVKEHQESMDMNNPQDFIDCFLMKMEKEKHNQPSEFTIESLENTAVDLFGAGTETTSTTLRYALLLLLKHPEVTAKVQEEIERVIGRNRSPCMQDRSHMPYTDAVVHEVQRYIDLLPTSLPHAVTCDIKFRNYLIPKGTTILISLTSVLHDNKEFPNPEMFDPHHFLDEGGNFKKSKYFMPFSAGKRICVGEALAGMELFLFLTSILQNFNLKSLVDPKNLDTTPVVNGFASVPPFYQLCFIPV
T2 sequence (P10635 whole entry): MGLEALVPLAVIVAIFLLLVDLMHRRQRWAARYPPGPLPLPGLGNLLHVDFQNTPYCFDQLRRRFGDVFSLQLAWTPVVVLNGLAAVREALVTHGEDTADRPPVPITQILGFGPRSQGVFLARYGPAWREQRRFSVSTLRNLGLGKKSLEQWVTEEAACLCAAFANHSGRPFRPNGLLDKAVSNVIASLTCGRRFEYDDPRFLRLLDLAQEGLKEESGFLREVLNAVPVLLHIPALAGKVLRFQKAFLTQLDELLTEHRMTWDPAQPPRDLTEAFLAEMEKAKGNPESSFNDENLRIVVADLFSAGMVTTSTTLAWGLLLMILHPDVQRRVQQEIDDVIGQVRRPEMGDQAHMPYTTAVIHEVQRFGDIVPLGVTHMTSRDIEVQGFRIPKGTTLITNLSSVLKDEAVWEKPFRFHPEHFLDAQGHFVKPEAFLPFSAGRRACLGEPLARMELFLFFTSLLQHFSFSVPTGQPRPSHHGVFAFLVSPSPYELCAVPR
T4 sequence (P33261 whole entry, canonical isoform): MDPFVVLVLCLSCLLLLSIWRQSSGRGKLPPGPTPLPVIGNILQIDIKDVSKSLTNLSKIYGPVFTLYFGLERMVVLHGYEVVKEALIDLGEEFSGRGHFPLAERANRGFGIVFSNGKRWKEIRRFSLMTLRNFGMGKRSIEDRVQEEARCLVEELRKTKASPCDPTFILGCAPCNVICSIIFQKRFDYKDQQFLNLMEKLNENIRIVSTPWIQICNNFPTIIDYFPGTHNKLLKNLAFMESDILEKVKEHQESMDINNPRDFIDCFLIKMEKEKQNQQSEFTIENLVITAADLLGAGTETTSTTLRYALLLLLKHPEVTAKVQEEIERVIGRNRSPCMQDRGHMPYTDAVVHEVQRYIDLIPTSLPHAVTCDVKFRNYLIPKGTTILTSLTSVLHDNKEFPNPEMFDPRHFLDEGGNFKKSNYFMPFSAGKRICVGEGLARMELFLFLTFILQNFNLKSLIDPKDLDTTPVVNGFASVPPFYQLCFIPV
T1 sequence (P08684 2-503 limits assumed): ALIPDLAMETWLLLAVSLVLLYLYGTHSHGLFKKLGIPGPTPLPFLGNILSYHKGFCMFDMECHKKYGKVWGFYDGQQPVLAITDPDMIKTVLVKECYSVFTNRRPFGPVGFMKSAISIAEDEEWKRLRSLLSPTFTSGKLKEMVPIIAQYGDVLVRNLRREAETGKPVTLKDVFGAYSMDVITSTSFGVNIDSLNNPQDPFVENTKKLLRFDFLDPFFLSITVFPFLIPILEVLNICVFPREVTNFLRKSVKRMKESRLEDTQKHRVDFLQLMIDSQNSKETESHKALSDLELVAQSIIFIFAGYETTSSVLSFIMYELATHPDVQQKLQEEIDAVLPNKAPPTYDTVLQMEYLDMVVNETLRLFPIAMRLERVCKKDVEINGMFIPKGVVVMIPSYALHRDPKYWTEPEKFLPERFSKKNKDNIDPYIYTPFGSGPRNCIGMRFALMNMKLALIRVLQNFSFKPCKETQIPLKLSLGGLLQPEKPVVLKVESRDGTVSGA

Turning to `CC1(C)CC(=O)CC(=O)C1` [5,5-dimethyl-1,3-cyclohexanedione], the “Inhibition of CYP isoforms at concentrations tested” value (“Inhibition of CYP isoforms” below) in [1] was “did not inhibit CYP isoforms at concentrations tested”.

For orientation: IC50 means the concentration at which inhibition is half-maximal. For the compound `O=[As][O-].[Na+]` [Arsenite, sodium arsenite], the IC50 in series [2], in series [3], in [4], in series [5], in series [6] and in series [8] was greater than 10 mM each time. Moreover, in series [7], the “Concentration up to which no CYP inhibition was shown” value is recorded as “up to 10 mM”. Besides, the “Inhibition of CYP isoforms” value in [7] is given as “did not inhibit CYP isoforms at concentrations tested”.

Turning to `C1COCCN1` [Morpholine], the 50% inhibitory concentration (IC50) in series [9] is 14 mM; in series [10] it was greater than 100 mM; in [11] it was 13 mM; in series [12], 7.9 mM; in series [13] it was 7.9 to 16 mM. Besides, the “Activation of CYP1A2” value in series [8] is listed as “activation was observed”.

Turning to `CC(=O)N[C@@H](CCCCN)C(=O)O` [N-Acetyl-lysine1, N-Acetyl-lysine], the “Inhibition of CYP isoforms” value in series [1] is reported as “did not inhibit CYP isoforms at concentrations tested”. Further, in series [1] (all isoforms tested), the “Concentration up to which no CYP inhibition was shown” value is “up to 50 mM”. Moreover, the IC50 in [14] and in series [15] was greater than 50 mM each time.

On to `CCN1C(=O)C=CC1=O` [N-Ethylmaleimide (NEM), N-Ethylmaleimide], for which, in series [9], the half-inhibitory concentration (IC50) stood at 2.9 mM and the “Activation of CYP2C19 observed at concentrations up to” value is listed as “up to 0.4 mM”. Besides, inhibition in series [16] was half-maximal at 0.12 mM (IC50). In addition, the IC50 in series [11] was greater than 40 mM. In [17] (HLM 0.5 mg/mL, NADPH, 15 min), the “NEM concentration at and above which TSO-NEM formation rapidly decreases” value was no less than 165 µM; the “NEM concentrations with initial increase in TSOD formation” value lay in the range of 0.7 to 18.3 µM. For the same compound, in [17] (NEM 0.007–40 mM), the “Response of TSO-NEM formation to increasing NEM concentration” value is “bell-shaped response curve”. In addition, in [12], the IC50 came to 3.2 mM and the “Activation of CYP2C9 observed at concentrations up to” value is “up to 1 mM”.

`CN1C(=O)C=CC1=O` [N-Methylmaleimide]: in series [9], the “Activation of CYP2C19 observed at concentrations up to” value is recorded as “up to 0.2 mM”. In addition, in [12], the “Activation of CYP2C9 observed at concentrations up to” value is listed as “up to 0.2 mM”.

Turning to `CN1CCCCC1` [N-Methylpiperidine], the “Activation of CYP1A2 observed at concentrations up to” value in [10] (HLM + NADPH, tacrine probe) was “up to 12.5 mM”.

As for `O=C(O)CCP(CCC(=O)O)CCC(=O)O` [Tris(2-carboxyethyl) phosphine (TCEP), Tris(2-carboxyethyl) phosphine], in series [11] (HLM + NADPH, dextromethorphan probe), the “Activation of CYP2D6” value is reported as “activation was observed”.
